Article PMC10364322, “Evaluation of chronic drug-induced electrophysiological and cytotoxic effects using human-induced pluripotent stem cell-derived cardiomyocytes (hiPSC-CMs)” (Frontiers in Pharmacology, 2023)
Where two headings read alike, the source gives them in different places.

Tested on: hiPSC-CMs (iCell-Cardiomyocytes^2)
In short: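 Monolayers of hiPSC-CMs on fibronectin-coated MEA plates, 50 K/well, kept at 37°C, 5% CO2; compounds added in 0.1% final DMSO after 5-min baseline. Field potential and impedance parameters expressed as mean ± SD percent change from baseline; arrhythmic events noted; cytotoxicity fluorescence normalized to DMSO, Kruskal-Wallis.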

Structure (SMILES): COc1nc(N)nc2c1ncn2[C@@H]1O[C@H](COP(=O)(N[C@@H](C)C(=O)OCC(C)(C)C)Oc2cccc3ccccc23)[C@@H](O)[C@@]1(C)O (stereo partly shown) [BMS-986094]
- BR (beating rate), % change from baseline (0.3 µM, 2h): 5±3%
- Beating below threshold, number of observations/total well numbers (0.3 µM, 2h): 0/5
- Cessation of beating, number of observations/total well numbers (0.3 µM, 2h): 0/5
- EAD, number of observations/total well numbers (0.3 µM, 2h): 0/5
- FPD (field-potential duration), % change from baseline (0.3 µM, 2h): 0.5±1%
- FPDc (field-potential duration corrected by beat-rate), % change from baseline (0.3 µM, 2h): 2.1±1.1%
- Flat T-wave-like, number of observations/total well numbers (0.3 µM, 2h): 0/5
- BR (beating rate), % change from baseline (0.3 µM, 24h): 8±3%
- Beating below threshold, number of observations/total well numbers (0.3 µM, 24h): 0/5
- Cessation of beating, number of observations/total well numbers (0.3 µM, 24h): 0/5
- EAD, number of observations/total well numbers (0.3 µM, 24h): 0/5
- FPD (field-potential duration), % change from baseline (0.3 µM, 24h): -5.3±4.1%
- FPDc (field-potential duration corrected by beat-rate), % change from baseline (0.3 µM, 24h): -2.7±3.8%
- Flat T-wave-like, number of observations/total well numbers (0.3 µM, 24h): 0/5
- BR (beating rate), % change from baseline (0.3 µM, 48h): 14±5%
- Beating below threshold, number of observations/total well numbers (0.3 µM, 48h): 0/5
- Cessation of beating, number of observations/total well numbers (0.3 µM, 48h): 0/5
- EAD, number of observations/total well numbers (0.3 µM, 48h): 0/5
- FPD (field-potential duration), % change from baseline (0.3 µM, 48h): -12.4±4.7%
- FPDc (field-potential duration corrected by beat-rate), % change from baseline (0.3 µM, 48h): -8.4±4.1%
- Flat T-wave-like, number of observations/total well numbers (0.3 µM, 48h): 0/5
- BR (beating rate), % change from baseline (0.3 µM, 72h): 22±3 %
- Beating below threshold, number of observations/total well numbers (0.3 µM, 72h): 0/5
- Cessation of beating, number of observations/total well numbers (0.3 µM, 72h): 0/5
- EAD, number of observations/total well numbers (0.3 µM, 72h): 0/5
- FPD (field-potential duration), % change from baseline (0.3 µM, 72h): -17.3±3.6 %
- FPDc (field-potential duration corrected by beat-rate), % change from baseline (0.3 µM, 72h): -11.6±3.5 %
- Flat T-wave-like, number of observations/total well numbers (0.3 µM, 72h): 0/5
- BR (beating rate), % change from baseline (0.3 µM, 96h): 30±11 %
- Beating below threshold, number of observations/total well numbers (0.3 µM, 96h): 0/5
- Cessation of beating, number of observations/total well numbers (0.3 µM, 96h): 0/5
- EAD, number of observations/total well numbers (0.3 µM, 96h): 0/5
- FPD (field-potential duration), % change from baseline (0.3 µM, 96h): -20.4±2.9 %
- FPDc (field-potential duration corrected by beat-rate), % change from baseline (0.3 µM, 96h): -14.3±1.9 %
- Flat T-wave-like, number of observations/total well numbers (0.3 µM, 96h): 1/5
- BR (beating rate), % change from baseline (1 µM, 2h): 6±2%
- Beating below threshold, number of observations/total well numbers (1 µM, 2h): 0/5
- Cessation of beating, number of observations/total well numbers (1 µM, 2h): 0/5
- EAD, number of observations/total well numbers (1 µM, 2h): 0/5
- FPD (field-potential duration), % change from baseline (1 µM, 2h): -3.6±2.3%
- FPDc (field-potential duration corrected by beat-rate), % change from baseline (1 µM, 2h): -1.8±2.1%
- Flat T-wave-like, number of observations/total well numbers (1 µM, 2h): 1/5
- BR (beating rate), % change from baseline (1 µM, 24h): 17±5%
- Beating below threshold, number of observations/total well numbers (1 µM, 24h): 0/5
- Cessation of beating, number of observations/total well numbers (1 µM, 24h): 0/5
- EAD, number of observations/total well numbers (1 µM, 24h): 0/5
- FPD (field-potential duration), % change from baseline (1 µM, 24h): -10.7±2.3 %
- FPDc (field-potential duration corrected by beat-rate), % change from baseline (1 µM, 24h): -6±2.7%
- Flat T-wave-like, number of observations/total well numbers (1 µM, 24h): 0/5
- BR (beating rate), % change from baseline (1 µM, 48h): 12±3%
- Beating below threshold, number of observations/total well numbers (1 µM, 48h): 0/5
- Cessation of beating, number of observations/total well numbers (1 µM, 48h): 0/5
- EAD, number of observations/total well numbers (1 µM, 48h): 0/5
- FPD (field-potential duration), % change from baseline (1 µM, 48h): -5.8±3 %
- FPDc (field-potential duration corrected by beat-rate), % change from baseline (1 µM, 48h): -2.5±2.1 %
- Flat T-wave-like, number of observations/total well numbers (1 µM, 48h): 3/5
- BR (beating rate), % change from baseline (1 µM, 72h): 17±6 %
- Beating below threshold, number of observations/total well numbers (1 µM, 72h): 0/5
- Cessation of beating, number of observations/total well numbers (1 µM, 72h): 0/5
- EAD, number of observations/total well numbers (1 µM, 72h): 0/5
- FPD (field-potential duration), % change from baseline (1 µM, 72h): -7.5±0 %
- FPDc (field-potential duration corrected by beat-rate), % change from baseline (1 µM, 72h): -2.3±0%
- Flat T-wave-like, number of observations/total well numbers (1 µM, 72h): 4/5
- BR (beating rate), % change from baseline (1 µM, 96h): 14±8 %
- Beating below threshold, number of observations/total well numbers (1 µM, 96h): 0/5
- Cessation of beating, number of observations/total well numbers (1 µM, 96h): 0/5
- EAD, number of observations/total well numbers (1 µM, 96h): 0/5
- FPD (field-potential duration), % change from baseline (1 µM, 96h): -7.9±0 %
- FPDc (field-potential duration corrected by beat-rate), % change from baseline (1 µM, 96h): -5.5±0 %
- Flat T-wave-like, number of observations/total well numbers (1 µM, 96h): 4/5
- BR (beating rate), % change from baseline (3 µM, 72h): 12±6 %
- Beating below threshold, number of observations/total well numbers (3 µM, 72h): 0/5
- Cessation of beating, number of observations/total well numbers (3 µM, 72h): 0/5
- EAD, number of observations/total well numbers (3 µM, 72h): 0/5
- Flat T-wave-like, number of observations/total well numbers (3 µM, 72h): 5/5
- BR (beating rate), % change from baseline (3 µM, 96h): 20±12 %
- Beating below threshold, number of observations/total well numbers (3 µM, 96h): 0/5
- Cessation of beating, number of observations/total well numbers (3 µM, 96h): 1/5
- EAD, number of observations/total well numbers (3 µM, 96h): 0/5
- Flat T-wave-like, number of observations/total well numbers (3 µM, 96h): 4/5
- BR (beating rate), % change from baseline (3 µM, 2h): 7±1%
- Beating below threshold, number of observations/total well numbers (3 µM, 2h): 0/5
- Cessation of beating, number of observations/total well numbers (3 µM, 2h): 0/5
- EAD, number of observations/total well numbers (3 µM, 2h): 0/5
- FPD (field-potential duration), % change from baseline (3 µM, 2h): -3.6±1.9%
- FPDc (field-potential duration corrected by beat-rate), % change from baseline (3 µM, 2h): -1.6±1.8%
- Flat T-wave-like, number of observations/total well numbers (3 µM, 2h): 0/5
- BR (beating rate), % change from baseline (3 µM, 24h): 20±3 %
- Beating below threshold, number of observations/total well numbers (3 µM, 24h): 0/5
- Cessation of beating, number of observations/total well numbers (3 µM, 24h): 0/5
- EAD, number of observations/total well numbers (3 µM, 24h): 0/5
- FPD (field-potential duration), % change from baseline (3 µM, 24h): -17±4.9 %
- FPDc (field-potential duration corrected by beat-rate), % change from baseline (3 µM, 24h): -11.8±5.5 %
- Flat T-wave-like, number of observations/total well numbers (3 µM, 24h): 0/5
- BR (beating rate), % change from baseline (3 µM, 48h): 13±3%
- Beating below threshold, number of observations/total well numbers (3 µM, 48h): 0/5
- Cessation of beating, number of observations/total well numbers (3 µM, 48h): 0/5
- EAD, number of observations/total well numbers (3 µM, 48h): 0/5
- FPD (field-potential duration), % change from baseline (3 µM, 48h): -0.5±0%
- FPDc (field-potential duration corrected by beat-rate), % change from baseline (3 µM, 48h): 2.6±0%
- Flat T-wave-like, number of observations/total well numbers (3 µM, 48h): 4/5
- BR (beating rate), % change from baseline (10 µM, 2h): 4±8%
- Beating below threshold, number of observations/total well numbers (10 µM, 2h): 0/5
- Cessation of beating, number of observations/total well numbers (10 µM, 2h): 0/5
- EAD, number of observations/total well numbers (10 µM, 2h): 0/5
- FPD (field-potential duration), % change from baseline (10 µM, 2h): -5.7±2.3%
- FPDc (field-potential duration corrected by beat-rate), % change from baseline (10 µM, 2h): -4.4±2.8 %
- Flat T-wave-like, number of observations/total well numbers (10 µM, 2h): 0/5
- BR (beating rate), % change from baseline (10 µM, 24h): 30±4 %
- Beating below threshold, number of observations/total well numbers (10 µM, 24h): 0/5
- Cessation of beating, number of observations/total well numbers (10 µM, 24h): 0/5
- EAD, number of observations/total well numbers (10 µM, 24h): 0/5
- FPD (field-potential duration), % change from baseline (10 µM, 24h): -24.2±3.7 %
- FPDc (field-potential duration corrected by beat-rate), % change from baseline (10 µM, 24h): -17.1±3.6 %
- Flat T-wave-like, number of observations/total well numbers (10 µM, 24h): 1/5
- BR (beating rate), % change from baseline (10 µM, 48h): 24±6 %
- Beating below threshold, number of observations/total well numbers (10 µM, 48h): 0/5
- Cessation of beating, number of observations/total well numbers (10 µM, 48h): 0/5
- EAD, number of observations/total well numbers (10 µM, 48h): 0/5
- FPD (field-potential duration), % change from baseline (10 µM, 48h): -10.6±0 %
- FPDc (field-potential duration corrected by beat-rate), % change from baseline (10 µM, 48h): -2.4±0 %
- Flat T-wave-like, number of observations/total well numbers (10 µM, 48h): 4/5
- BR (beating rate), % change from baseline (10 µM, 72h): 32±14 %
- Beating below threshold, number of observations/total well numbers (10 µM, 72h): 0/5
- Cessation of beating, number of observations/total well numbers (10 µM, 72h): 0/5
- EAD, number of observations/total well numbers (10 µM, 72h): 0/5
- Flat T-wave-like, number of observations/total well numbers (10 µM, 72h): 5/5
- BR (beating rate), % change from baseline (10 µM, 96h): 29±0 %
- Beating below threshold, number of observations/total well numbers (10 µM, 96h): 1/5
- Cessation of beating, number of observations/total well numbers (10 µM, 96h): 3/5
- EAD, number of observations/total well numbers (10 µM, 96h): 0/5
- Flat T-wave-like, number of observations/total well numbers (10 µM, 96h): 1/5
- T-wave morphology (72 h and 96 h, two highest concentrations (10 and 1 µM)): flattening of the T-wave
